From ChEMBL document CHEMBL1154378, “Histamine H3 and H4 receptor affinity of branched 3-(1H-imidazol-4-yl)propyl N-alkylcarbamates” (Bioorg Med Chem Lett, 2009)

How the values were obtained:
Histamine H3 receptor [1] = molecular target: T1, Histamine H3 receptor (Homo sapiens, UniProt Q9Y5N1); assay: Displacement of [125I]iodoproxyfan from human histamine H3 receptor expressed in CHO-K1 cells
Histamine H4 receptor [2] = molecular target: T2, Histamine H4 receptor (Homo sapiens, UniProt Q9H3N8); assay: Displacement of [3H]histamine from human histamine H4 receptor expressed in SF9 cells coexpressing Galphai2, Gbeta1gamma2
Homo sapiens = species on record: Homo sapiens; assay: Selectivity, ratio of Ki for human histaminee H4 receptor to Ki for human histamine H3 receptor
Histamine H3 receptor [3] = molecular target: T1, Histamine H3 receptor; assay: Displacement of […]iodoproxyfan from human histamine H3 receptor expressed in HEK293 cells; assay type: cell-based
Histamine H3 receptor [4] = molecular target: Histamine H3 receptor (Rattus norvegicus, UniProt Q9QYN8); assay: Displacement of [3H]histamine from histamine H3 receptor in rat cerebral cortex; assay type: tissue-based
Histamine H4 receptor [5] = molecular target: T2, Histamine H4 receptor; assay: Displacement of [3H]histamine from human histamine H4 receptor expressed in HEK293 cells; assay type: cell-based

T1 sequence (Q9Y5N1 whole entry): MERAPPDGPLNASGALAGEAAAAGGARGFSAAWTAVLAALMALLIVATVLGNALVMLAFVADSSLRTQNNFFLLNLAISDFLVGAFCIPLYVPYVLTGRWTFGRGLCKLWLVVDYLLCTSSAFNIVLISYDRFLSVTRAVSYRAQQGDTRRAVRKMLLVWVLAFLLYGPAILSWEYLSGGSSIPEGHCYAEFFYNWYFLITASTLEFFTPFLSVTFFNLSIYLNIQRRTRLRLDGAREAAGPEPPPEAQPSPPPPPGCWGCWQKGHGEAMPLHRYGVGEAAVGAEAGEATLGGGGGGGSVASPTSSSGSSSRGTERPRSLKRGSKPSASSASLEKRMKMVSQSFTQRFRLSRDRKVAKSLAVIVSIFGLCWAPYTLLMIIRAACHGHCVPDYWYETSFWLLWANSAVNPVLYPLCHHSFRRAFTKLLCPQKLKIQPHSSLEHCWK
Chain of Histamine H3 receptor (Rattus norvegicus, UniProt Q9QYN8) (Q9QYN8 whole entry): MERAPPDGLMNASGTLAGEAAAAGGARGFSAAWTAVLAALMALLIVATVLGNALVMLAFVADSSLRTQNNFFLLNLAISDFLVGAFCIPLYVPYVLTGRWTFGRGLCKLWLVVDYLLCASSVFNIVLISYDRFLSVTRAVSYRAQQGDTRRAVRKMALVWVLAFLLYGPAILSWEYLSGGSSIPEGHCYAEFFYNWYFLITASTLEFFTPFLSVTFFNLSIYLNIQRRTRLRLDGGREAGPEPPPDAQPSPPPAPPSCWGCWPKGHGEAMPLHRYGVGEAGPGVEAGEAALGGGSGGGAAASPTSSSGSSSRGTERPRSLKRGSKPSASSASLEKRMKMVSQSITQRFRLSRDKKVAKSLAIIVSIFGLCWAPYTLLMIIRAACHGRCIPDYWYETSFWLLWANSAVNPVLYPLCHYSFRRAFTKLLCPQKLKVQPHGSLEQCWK

Ki (Histamine H3 receptor [1]) [nM] | Ki (Histamine H4 receptor [2]) [nM] | Ratio Ki (Homo sapiens) | SMILES | other results
4.7 | 118 | 25 | CC[C@H](C)CNC(=O)OCCCc1c[nH]cn1 | –
74 | 1460 | – | CCCCC[C@H](C)NC(=O)OCCCc1cnc[nH]1 | –
19 | 426 | – | CCCC[C@@H](C)NC(=O)OCCCc1cnc[nH]1 | –
42 | – | – | CCCC[C@H](C)NC(=O)OCCCc1cnc[nH]1 | –
– | – | – | CCCCCC[C@@H](C)NC(=O)OCCCc1c[nH]cn1 | Ki (Histamine H3 receptor [3]): 28 nM
41 | 636 | – | CCCCC[C@@H](C)NC(=O)OCCCc1cnc[nH]1 | –
12 | 290 | 24 | CC[C@@H](C)NC(=O)OCCCc1c[nH]cn1 | –
31 | – | – | CC[C@H](C)NC(=O)OCCCc1c[nH]cn1 | –
15 | – | – | CCC[C@@H](C)NC(=O)OCCCc1cnc[nH]1 | –
– | – | – | CCCCCC[C@H](C)NC(=O)OCCCc1c[nH]cn1 | Ki (Histamine H3 receptor [3]): 43 nM
– | – | 16 | CCCCC[C@@H](C)NC(=O)OCCCc1c[nH]cn1 | –
– | – | 20 | CCCCC[C@H](C)NC(=O)OCCCc1c[nH]cn1 | –
– | – | 22 | CCCC[C@@H](C)NC(=O)OCCCc1c[nH]cn1 | –
49 | – | – | CCC(C)NC(=O)OCCCc1c[nH]cn1 (racemic) | –
52 | – | – | CCCCCC(C)NC(=O)OCCCc1c[nH]cn1 (racemic) | –
29 | 695 | 24 | CCCCC(C)NC(=O)OCCCc1c[nH]cn1 (racemic) | –
75 | – | – | CC(C)CCCC(C)NC(=O)OCCCc1cnc[nH]1 (racemic) | Ki (Histamine H3 receptor [4]): 22 nM
37 | 779 | – | CCCCC(CC)CNC(=O)OCCCc1cnc[nH]1 (racemic) | –
91 | – | – | CCCCCCC(C)NC(=O)OCCCc1c[nH]cn1 (racemic) | –
21 | – | – | CCCC(C)NC(=O)OCCCc1c[nH]cn1 (racemic) | –
8.3 | 162 | 20 | CCCC(C)CNC(=O)OCCCc1c[nH]cn1 (racemic) | –
13 | 123 | 9 | CCC(C)CCNC(=O)OCCCc1c[nH]cn1 (racemic) | –
30 | – | – | CC(C)CCC(C)NC(=O)OCCCc1cnc[nH]1 (racemic) | –
– | – | 21 | CCCCC(CC)CNC(=O)OCCCc1c[nH]cn1 (racemic) | –
– | – | – | O=C(c1ccc(OCCCc2cnc[nH]2)cc1)C1CC1 [CIPROXIFAN] | Ki (Histamine H4 receptor [5]): 612 nM
– | – | – | NC(=NCc1ccc(Cl)cc1)SCCCc1cnc[nH]1 [CLOBENPROPIT] | Ki (Histamine H4 receptor [5]): 4.3 nM
